Reference: patent publication US6297043A, “Mumbaistatin, a process for it's production and its use as a pharmaceutical” (Aventis Pharma Deutschland GmbH, priority 1998, dated 2001)

What was measured:
[1] = target: T1, rat liver microsomal glucose-6-phosphate translocase (Rattus norvegicus, UniProt F7EWB7); assay: inhibition of rat liver microsomal glucose-6-phosphate translocase activity; assay type: biochemical
T1 construct: rat liver microsomal glucose-6-phosphate translocase; from tissue; host or cells: rat liver microsomes
T1 sequence (F7EWB7 1-429): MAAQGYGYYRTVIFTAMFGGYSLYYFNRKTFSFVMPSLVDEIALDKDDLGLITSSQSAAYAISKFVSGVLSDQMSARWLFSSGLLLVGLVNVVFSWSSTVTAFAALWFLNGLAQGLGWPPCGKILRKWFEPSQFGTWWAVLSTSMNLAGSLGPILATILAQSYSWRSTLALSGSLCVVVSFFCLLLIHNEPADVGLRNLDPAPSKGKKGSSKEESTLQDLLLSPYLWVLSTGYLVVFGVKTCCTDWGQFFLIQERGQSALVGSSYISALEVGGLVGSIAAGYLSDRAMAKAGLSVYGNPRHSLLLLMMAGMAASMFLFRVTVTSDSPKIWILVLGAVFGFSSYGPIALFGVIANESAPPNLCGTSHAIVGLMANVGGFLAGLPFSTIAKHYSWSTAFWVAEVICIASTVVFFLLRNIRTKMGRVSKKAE
Text: (§1) If desired, DESMOPHEN® (polypropylene oxide) may be used as an antifoam agent in the fermenters. […] In the resulting culture broth, Mumbaistatin is present primarily in the culture filtrate and can thus be recovered by extraction of the culture filtrate with a water immiscible solvent such as, for example, ethyl acetate, dichloromethane, chloroform or butanol at pH 5-8, or by hydrophobic interaction chromatography using polymeric resins such as DIAION® HP-20 (Mitsubishi Chemical Industries Limited, Japan), AMBERLITE® XAD (Rohm and Haas Industries, U.S.A.), or activated charcoal, or by ion exchange chromatography at pH 5-8.
(§2) The production of Mumbaistatin was monitored by measuring the inhibition of glucose-6-phosphate translocase.
(§3) The production of the compound was monitored by measuring the inhibition of glucose-6-phosphate translocase.

[2] = test system: rat liver microsomal glucose-6-phosphate translocase; assay: as above; assay type: biochemical; conditions: translocase versus phosphatase activity
Text: as §1, §2, §3

[3] = test system: phosphate/pyrophosphate translocase; assay: effect on activity of phosphate/pyrophosphate translocase; assay type: biochemical
[4] = test system: fructose-induced gluconeogenesis; assay: glucose output of isolated rat hepatocytes: fructose-induced gluconeogenesis; assay type: cell-based
Description: (§4) Mumbaistatin was further evaluated in isolated rat hepatocytes for its effect on glucose output. It inhibits both fructose-induced gluconeogenesis and glucagon-induced glycogenolysis with IC50 values of about 0.3 μM and 0.6 μM, respectively.

[5] = test system: glucagon-induced glycogenolysis; assay: glucose output of isolated rat hepatocytes: glucagon-induced glycogenolysis; assay type: cell-based
Description: as §4

- mode of inhibition of glucose-6-phosphate translocase [1]: reversible and competitive inhibitor
- IC50 ([1]; rat liver microsomal): ~0.025 µM
- inhibition of glucose-6-phosphate translocase ([1]; rat liver microsomal): potently inhibits
- effect on activity of phosphate/pyrophosphate translocase [3]: did not affect
Substance: Mumbaistatin
- specificity for translocase over phosphatase [2]: high degree of specificity for translocase
- IC50 [4]: ~0.3 µM
- IC50 [5]: ~0.6 µM
